Target: T1, p53 Y220C (Homo sapiens, UniProt P04637, Y220C)
T1 construct: The recombinant protein was a truncation mutant containing only amino acids 94-312 of p53; made in house; host or cells: E. coli
Test: In vitro DNA binding activity assay (HTRF / TR-FRET): stabilization of p53 Y220C and increase of its DNA binding activity
Assay type: biochemical
Details: recombinant His-tagged p53 Y220C DNA binding domain (aa 94-312), biotin-labeled consensus DNA, incubated at 27° C. or 29° C. for 60 min
Method in brief: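 His-tagged p53 Y220C, E. coli-expressed, binding biotin-labeled consensus DNA measured by HTRF (anti-His-APC, streptavidin-europium). Compounds from 4.5 mM DMSO stocks, 3-fold serial dilutions; incubations at room temperature 15 min, then 20 min. SC150 = concentration raising DNA binding by 50%.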

T1 sequence (P04637 94-312, change not shown): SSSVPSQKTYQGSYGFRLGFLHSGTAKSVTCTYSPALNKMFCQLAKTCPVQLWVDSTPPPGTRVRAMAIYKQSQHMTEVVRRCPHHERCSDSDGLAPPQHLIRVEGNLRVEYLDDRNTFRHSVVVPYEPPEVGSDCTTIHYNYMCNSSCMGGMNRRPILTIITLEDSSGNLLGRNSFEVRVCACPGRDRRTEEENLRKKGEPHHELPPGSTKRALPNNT

| Compound | SC150 (concentration of the compound required to increase the DNA binding activity by 50%) |
| --- | --- |
| COc1cc(C(=O)NCCN2CCOCC2)ccc1NCC#Cc1cc2c(N[C@@H]3CCN(C)C[C@@H]3F)cccc2n1CC(F)(F)F [Compound 924A, 4-{[3-(4-{[(3S,4R)-3-fluoro-1-methylpiperidin-4-yl]amino}-1-(2,2,2-trifluoroethyl)-1H-indol-2-yl)prop-2-yn-1-yl]amino}-3-methoxy-N-[2-(morpholin-4-yl)ethyl]benzamide] | + (+ = 0 μM ≤ SC150 < 0.05 μM) |
| COc1cc(S(C)(=O)=O)ccc1NCC#Cc1cc2c(NC(=O)NC3CCN(CC(N)=O)CC3)cccc2n1CC(F)(F)F [Compound 16A, 2-(4-{[(2-{3-[(4-methanesulfonyl-2-methoxyphenyl)amino]prop-1-yn-1-yl}-1-(2,2,2-trifluoroethyl)-1H-indol-4-yl)carbamoyl]amino}piperidin-1-yl)acetamide] | ++++ (++++ = 0.2 μM ≤ SC150 < 1 μM) |
| COCC(CN1CCC(Nc2cccc3c2cc(C#CCNc2ccc(S(N)(=O)=O)cc2OC)n3CC(F)(F)F)CC1)OC(=O)C(C)C (stereo not drawn) [Compound 604A, 1-methoxy-3-{4-[(2-{3-[(2-methoxy-4-sulfamoylphenyl)amino]prop-1-yn-1-yl}-1-(2,2,2-trifluoroethyl)-1H-indol-4-yl)amino]piperidin-1-yl}propan-2-yl 2-methylpropanoate] | + (+ = 0 μM ≤ SC150 < 0.05 μM) |
| COc1cc(S(N)(=O)=O)ccc1NCC#Cc1cc2c(N[C@H]3CC[C@H](N4CCC(OC)CC4)CC3)cccc2n1CC(F)(F)F [Compound 354A, 3-methoxy-4-{[3-(4-{[(1R,4R)-4-(4-methoxypiperidin-1-yl)cyclohexyl]amino}-1-(2,2,2-trifluoroethyl)-1H-indol-2-yl)prop-2-yn-1-yl]amino}benzene-1-sulfonamide] | + (+ = 0 μM ≤ SC150 < 0.05 μM) |
| COc1cc(S(C)(=O)=O)ccc1NCC#Cc1cc2c(NC3CCN(CC(C)OC(C)=O)CC3)cccc2n1CC(F)(F)F (stereo not drawn) [Compound 567A, 1-{4-[(2-{3-[(4-methanesulfonyl-2-methoxyphenyl)amino]prop-1-yn-1-yl}-1-(2,2,2-trifluoroethyl)-1H-indol-4-yl)amino]piperidin-1-yl}propan-2-yl acetate] | + (+ = 0 μM ≤ SC150 < 0.05 μM) |
| COCC(O)CN1CCC(Nc2cccc3c2cc(C#CCNc2cc(S(C)(=O)=O)ccc2OC)n3CC(F)(F)F)CC1 (stereo not drawn) [Compound 670A, 1-{4-[(2-{3-[(5-methanesulfonyl-2-methoxyphenyl)amino]prop-1-yn-1-yl}-1-(2,2,2-trifluoroethyl)-1H-indol-4-yl)amino]piperidin-1-yl}-3-methoxypropan-2-ol] | ++++ (++++ = 0.2 μM ≤ SC150 < 1 μM) |
| CCS(=O)(=O)c1ccc(NCC#Cc2cc3c(N[C@@H]4CCNC[C@@H]4F)cccc3n2CC(F)(F)F)c(OC)c1 [Compound 935A, 2-(3-{[4-(ethanesulfonyl)-2-methoxyphenyl]amino}prop-1-yn-1-yl)-N-[(3S,4R)-3-fluoropiperidin-4-yl]-1-(2,2,2-trifluoroethyl)-1H-indol-4-amine] | + (+ = 0 μM ≤ SC150 < 0.05 μM) |
| COc1cc(C(=O)N2CCC(N(C)C)CC2)ccc1NCC#Cc1cc2c(N[C@@H]3CCN(C)C[C@@H]3F)cccc2n1CC(F)(F)F [Compound 933A, 2-[3-({4-[4-(dimethylamino)piperidine-1-carbonyl]-2-methoxyphenyl}amino)prop-1-yn-1-yl]-N-[(3S,4R)-3-fluoro-1-methylpiperidin-4-yl]-1-(2,2,2-trifluoroethyl)-1H-indol-4-amine] | + (+ = 0 μM ≤ SC150 < 0.05 μM) |
| CCNC(=O)c1ccc(NCC#Cc2cc3c(N[C@@H]4CCN(C)C[C@@H]4F)cccc3n2CC(F)(F)F)c(OC)c1 [Compound 940A, N-ethyl-4-{[3-(4-{[(3S,4R)-3-fluoro-1-methylpiperidin-4-yl]amino}-1-(2,2,2-trifluoroethyl)-1H-indol-2-yl)prop-2-yn-1-yl]amino}-3-methoxybenzamide] | + (+ = 0 μM ≤ SC150 < 0.05 μM) |
| CS(=O)(=O)c1ccc(NCC#Cc2cc3c(N[C@H]4CC[C@@H](N5CC6(COC6)C5)CC4)cccc3n2CC(F)(F)F)c(OCCO)c1 [Compound 226A, 2-(5-methanesulfonyl-2-{[3-(4-{[(1S,4S)-4-{2-oxa-6-azaspiro[3.3]heptan-6-yl}cyclo-hexyl]amino}-1-(2,2,2-trifluoroethyl)-1H-indol-2-yl)prop-2-yn-1-yl]amino}phenoxy)ethan-1-ol] | + (+ = 0 μM ≤ SC150 < 0.05 μM) |
| CCNC(=O)c1ccc(NCC#Cc2cc3c(N[C@H]4CC[C@H](N5CC6CC(C5)O6)CC4)cccc3n2CC(F)(F)F)c(OC)c1 [Compound 406A, N-ethyl-3-methoxy-4-{[3-(4-{[(1R,4R)-4-{6-oxa-3-azabicyclo[3.1.1]heptan-3-yl}cyclohexyl]amino}-1-(2,2,2-trifluoroethyl)-1H-indol-2-yl)prop-2-yn-1-yl]amino}benzamide] | + (+ = 0 μM ≤ SC150 < 0.05 μM) |
| CCC(=O)OC(C)CN1CCC(Nc2cccc3c2cc(C#CCNc2ccc(S(C)(=O)=O)cc2OC)n3CC(F)(F)F)CC1 (racemic) [Compound 590A, 1-{4-[(2-{3-[(4-methanesulfonyl-2-methoxyphenyl)amino]prop-1-yn-1-yl}-1-(2,2,2-trifluoroethyl)-1H-indol-4-yl)amino]piperidin-1-yl}propan-2-yl propanoate] | + (+ = 0 μM ≤ SC150 < 0.05 μM) |
| COc1cc(S(N)(=O)=O)ccc1NCC#Cc1cc2c(N[C@H]3CC[C@H](N4CC5(CCOCC5)C4)CC3)cccc2n1CC(F)(F)F [Compound 297A, 3-methoxy-4-{[3-(4-{[(1R,4R)-4-{7-oxa-2-azaspiro[3.5]nonan-2-yl}cyclohexyl]amino}-1-(2,2,2-trifluoroethyl)-1H-indol-2-yl)prop-2-yn-1-yl]amino}benzene-1-sulfonamide] | + (+ = 0 μM ≤ SC150 < 0.05 μM) |
| COc1cc(S(C)(=O)=O)ccc1NCC#Cc1cc2c(N[C@@H]3CCN(C(C)C)C[C@@H]3F)cccc2n1CC(F)(F)F [Compound 802A] | + (+ = 0 μM ≤ SC150 < 0.05 μM) |
| COCCN(C)[C@H]1CC[C@@H](Nc2cccc3c2cc(C#CCNc2ccc(S(C)(=O)=O)cc2OC)n3CC(F)(F)F)CC1 [Compound 56A, (1S,4S)-N^4-(2-{3-[(4-methanesulfonyl-2-methoxyphenyl)amino]prop-1-yn-1-yl}-1-(2,2,2-trifluoroethyl)-1H-indol-4-yl)-N^1-(2-methoxyethyl)-N^1-methylcyclohexane-1,4-diamine] | + (+ = 0 μM ≤ SC150 < 0.05 μM) |
| C=C(C#N)Cn1c(C#CCNc2ccc(S(C)(=O)=O)cc2OC)cc2c(N[C@H]3CC[C@H](N(C)C)CC3)cccc21 [Compound 78A, 2-[(2-{3-[(4-methanesulfonyl-2-methoxyphenyl)amino]prop-1-yn-1-yl}-4-{[(1R,4R)-4-(dimethylamino)cyclohexyl]amino}-1H-indol-1-yl)methyl]prop-2-enenitrile] | +++ (+++ = 0.1 μM ≤ SC150 < 0.2 μM) |
| CNC(=O)c1cc(OC)c(NCC#Cc2cc3c(N[C@H]4CC[C@H](N(C)C)CC4)cccc3n2CC(F)(F)F)cc1F [Compound 136A, 2-fluoro-5-methoxy-N-methyl-4-{[3-(4-{[(1R,4R)-4-(dimethylamino)cyclohexyl]amino}-1-(2,2,2-trifluoroethyl)-1H-indol-2-yl)prop-2-yn-1-yl]amino}benzamide] | + (+ = 0 μM ≤ SC150 < 0.05 μM) |
| COc1cc(S(=O)(=O)N(C)CCN(C)C)ccc1NCC#Cc1cc2c(NC3CCS(=O)(=O)CC3)cccc2n1CC(F)(F)F [Compound 1043A, N-[2-(dimethylamino)ethyl]-4-[(3-{4-[(1,1-dioxo-1λ^6-thian-4-yl)amino]-1-(2,2,2-trifluoroethyl)-1H-indol-2-yl}prop-2-yn-1-yl)amino]-3-methoxy-N-methylbenzene-1-sulfonamide] | + (+ = 0 μM ≤ SC150 < 0.05 μM) |
| COC(=O)c1ccc(NCC#Cc2cc3c(N[C@@H]4CCN(CC(C)O)C[C@@H]4F)cccc3n2CC(F)(F)F)c(OC)c1 (mixture of isomers) [Compound 900A, methyl 4-{[3-(4-{[(3S,4R)-3-fluoro-1-(2-hydroxypropyl)piperidin-4-yl]amino}-1-(2,2,2-trifluoroethyl)-1H-indol-2-yl)prop-2-yn-1-yl]amino}-3-methoxybenzoate] | + (+ = 0 μM ≤ SC150 < 0.05 μM) |
| COc1cc(S(N)(=O)=O)ccc1NCC#Cc1cc2c(NC3CCN(C[C@H]4COC(=O)O4)CC3)cccc2n1CC(F)(F)F [Compound 759A, 3-methoxy-4-[(3-{4-[(1-{[(4S)-2-oxo-1,3-dioxolan-4-yl]methyl}piperidin-4-yl)amino]-1-(2,2,2-trifluoroethyl)-1H-indol-2-yl}prop-2-yn-1-yl)amino]benzene-1-sulfonamide] | + (+ = 0 μM ≤ SC150 < 0.05 μM) |
| COCC(O)CNC(=O)c1ccc(NCC#Cc2cc3c(N[C@H]4CCN(C)C[C@H]4F)cccc3n2CC(F)(F)F)c(OC)c1 (mixture of isomers) [Compound 816A] | + (+ = 0 μM ≤ SC150 < 0.05 μM) |

Reference: patent US12428406B2 (PMV Pharmaceuticals, Inc., priority 2019, dated 2025)
